# “And” between values parts separate entries of the source, which are not always exact repeats. Identical values can stand only once. Inconclusive results and toxic doses are left out.
# Tested on: P388 leukemia ip, CD2F1 mice, survival T/C
# Assay: NCI In Vivo Anticancer Drug Screen. Data for tumor model P388 Leukemia (intraperitoneal) in CD2F1 (CDF1) mice
# Settings: endpoint: median survival time, higher = longer survival
# How it was run: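 Mice carrying the transplanted tumor received test compound or vehicle. Survival was recorded in each group, and the value is the treated-group measurement divided by that of the vehicle-treated control group.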
# [1] = dose: 50.0 mg/kg/injection, schedule: Q01DX005 (ip), vehicle: saline with Tween-80
# [2] = dose: 100.0 mg/kg/injection, schedule: Q01DX005 (ip), vehicle: saline with Tween-80
# [3] = dose: 200.0 mg/kg/injection, schedule: Q01DX005 (ip), vehicle: saline with Tween-80
# [4] = dose: 50.0 mg/kg/injection, schedule: Q01DX009 (ip), vehicle: saline with Tween-80
# [5] = dose: 100.0 mg/kg/injection, schedule: Q01DX009 (ip), vehicle: saline with Tween-80
# [6] = dose: 200.0 mg/kg/injection, schedule: Q01DX009 (ip), vehicle: saline with Tween-80
# [7] = dose: 50.0 mg/kg/injection, schedule: Q01DX001 (ip), vehicle: Klucel (hydroxypropylcellulose) (HPC)
# [8] = dose: 100.0 mg/kg/injection, schedule: Q01DX001 (ip), vehicle: Klucel (hydroxypropylcellulose) (HPC)
# [9] = dose: 200.0 mg/kg/injection, schedule: Q01DX001 (ip), vehicle: Klucel (hydroxypropylcellulose) (HPC)
# [10] = dose: 12.5 mg/kg/injection, schedule: Q01DX009 (ip), vehicle: other
# [11] = dose: 25.0 mg/kg/injection, schedule: Q01DX009 (ip), vehicle: other
# [12] = dose: 50.0 mg/kg/injection, schedule: Q01DX009 (ip), vehicle: other
# [13] = dose: 100.0 mg/kg/injection, schedule: Q01DX009 (ip), vehicle: other
# [14] = dose: 200.0 mg/kg/injection, schedule: Q01DX009 (ip), vehicle: other
# [15] = dose: 50.0 mg/kg/injection, schedule: Q01DX005 (ip), vehicle: Klucel (hydroxypropylcellulose) (HPC)
# [16] = dose: 100.0 mg/kg/injection, schedule: Q01DX005 (ip), vehicle: Klucel (hydroxypropylcellulose) (HPC)
# [17] = dose: 100.0 mg/kg/injection, schedule: Q04DX003 (ip), vehicle: saline
# [18] = dose: 200.0 mg/kg/injection, schedule: Q04DX003 (ip), vehicle: saline
smiles,measurement,setting,value
N=C1SCC(=O)C1C(=O)O (stereo not drawn),T/C,[1],105 % of control
same,T/C,[2],119 % of control
same,T/C,[3],110 % of control
Nc1ncnc2ccc(Cl)cc12,T/C,[4],105 % of control
same,T/C,[5],100 % of control
same,T/C,[6],107 % of control
C=CCNC(=S)NCC,T/C,[5],100 % of control
same,T/C,[6],104 % of control
same,T/C,"dose: 400.0 mg/kg/injection, schedule: Q01DX009 (ip), vehicle: saline with Tween-80",109 % of control
COc1ccc(Oc2c(OC)cc(NCCCCCN3C(=O)c4ccccc4C3=O)c3ncccc23)cc1,T/C,[4],88 % of control
same,T/C,[5],97 % of control
same,T/C,[6],89 % of control
OC1CC(OCc2ccccc2)CC1O (stereo not drawn),T/C,[4],103 % of control
same,T/C,[5],97 % of control
same,T/C,[6],103 % of control
CCOC(=O)C1NC(=O)C(C(=O)OCC)NC1=O (stereo not drawn),T/C,[1],96 % of control
same,T/C,[2],92 % of control
same,T/C,[3],93 % of control
CCOC(=O)C1=S=C(SCCO)N(C)C1=O,T/C,"dose: 100.0 mg/kg/injection, schedule: Q04DX002 (ip), vehicle: saline with Tween-80",95 % of control
same,T/C,"dose: 200.0 mg/kg/injection, schedule: Q04DX002 (ip), vehicle: saline with Tween-80",103 % of control
same,T/C,"dose: 400.0 mg/kg/injection, schedule: Q04DX002 (ip), vehicle: saline with Tween-80",97 % of control
CC1CC(O)C(=O)C2(C)C1CC1OC(=O)CC3C(C)C(=O)C(O)C2C13 (stereo not drawn),T/C,[1],100 % of control
same,T/C,[2],104 % of control
same,T/C,[3],99 % of control
CCOC(=O)NC1=C(N2CC2)C(=O)C(NC(=O)OCC)=C(N2CC2)C1=O,T/C,"dose: 0.5 mg/kg/injection, schedule: Q01DX005 (iv), vehicle: saline",110 % of control
same,T/C,"dose: 2.59 mg/kg/injection, schedule: Q04DX002 (ip), vehicle: saline",160 % of control
same,T/C,"dose: 3.0 mg/kg/injection, schedule: Q01DX005 (ip), vehicle: saline with Tween-80",216 % of control
same,T/C,"dose: 4.0 mg/kg/injection, schedule: Q01DX005 (ip), vehicle: saline",200 % of control
same,T/C,"dose: 4.9 mg/kg/injection, schedule: Q01DX005 (ip), vehicle: saline with Tween-80",211 % of control and 259 % of control
same,T/C,"dose: 8.0 mg/kg/injection, schedule: Q04DX003 (iv), vehicle: saline with Tween-80",160 % of control
same,T/C,"dose: 8.1 mg/kg/injection, schedule: Q01DX005 (ip), vehicle: saline with Tween-80",75 % of control
same,T/C,"dose: 12.0 mg/kg/injection, schedule: Q04DX002 (ip), vehicle: saline",277 % of control
same,T/C,"dose: 22.5 mg/kg/injection, schedule: Q01DX001 (ip), vehicle: saline with Tween-80",62 % of control
same,T/C,"dose: 37.5 mg/kg/injection, schedule: Q01DX001 (ip), vehicle: saline with Tween-80",100 % of control and 58 % of control
CCCCCN(CCCCC)CC(=O)c1ccc2cc(Br)c3ccccc3c2c1,T/C,[1],104 % of control
same,T/C,[2],101 % of control
same,T/C,[3],108 % of control
O=[N+]([O-])c1ccc2nc(Cl)sc2c1,T/C,"dose: 25.0 mg/kg/injection, schedule: Q01DX009 (ip), vehicle: saline with Tween-80",95 % of control
same,T/C,[4],90 % of control
same,T/C,[5],109 % of control
CC(C)(C)c1cc(C(C)(C)O)c2c(c1)C(C)(C)OS2,T/C,"dose: 50.0 mg/kg/injection, schedule: Q04DX003 (ip), vehicle: saline with Tween-80",99 % of control
same,T/C,"dose: 100.0 mg/kg/injection, schedule: Q04DX003 (ip), vehicle: saline with Tween-80",106 % of control
same,T/C,"dose: 200.0 mg/kg/injection, schedule: Q04DX003 (ip), vehicle: saline with Tween-80",100 % of control
CC(=O)NS(=O)(=O)c1ccc(N=NC2C(=O)N(C(=O)c3ccccc3)N=C2C)cc1 (stereo not drawn),T/C,[7],93 % of control
same,T/C,[8],95 % of control
same,T/C,[9],93 % of control
O=c1c2ccccc2nc2sc3nc4ccccc4c(=O)n3n12,T/C,"dose: 15.0 mg/kg/injection, schedule: Q01DX005 (ip), vehicle: Klucel (hydroxypropylcellulose) (HPC)",94 % of control
same,T/C,"dose: 30.0 mg/kg/injection, schedule: Q01DX005 (ip), vehicle: Klucel (hydroxypropylcellulose) (HPC)",91 % of control
same,T/C,"dose: 60.0 mg/kg/injection, schedule: Q01DX005 (ip), vehicle: Klucel (hydroxypropylcellulose) (HPC)",88 % of control and 92 % of control
same,T/C,"dose: 120.0 mg/kg/injection, schedule: Q01DX005 (ip), vehicle: Klucel (hydroxypropylcellulose) (HPC)",89 % of control
same,T/C,"dose: 240.0 mg/kg/injection, schedule: Q01DX005 (ip), vehicle: Klucel (hydroxypropylcellulose) (HPC)",96 % of control
O=C(NC(CCSSCCC(NC(=O)OCc1ccccc1)C(=O)O)C(=O)O)OCc1ccccc1 (stereo not drawn),T/C,[10],98 % of control
same,T/C,[11],98 % of control
same,T/C,[12],101 % of control
same,T/C,[13],100 % of control
same,T/C,[14],103 % of control
NNC(=O)CNc1ccccc1F,T/C,"dose: 15.0 mg/kg/injection, schedule: Q01DX005 (ip), vehicle: saline",97 % of control
same,T/C,"dose: 30.0 mg/kg/injection, schedule: Q01DX005 (ip), vehicle: saline",95 % of control
same,T/C,"dose: 60.0 mg/kg/injection, schedule: Q01DX005 (ip), vehicle: saline",91 % of control and 97 % of control
same,T/C,"dose: 120.0 mg/kg/injection, schedule: Q01DX005 (ip), vehicle: saline",97 % of control
CCOC(=O)C(=CNc1ccc2c(C)cc3ccc(C(=O)OCC)c(=O)n3c2n1)C(=O)OCC,T/C,[15],88 % of control
same,T/C,[16],86 % of control
CCOC(=O)C1=NN(C)C(=O)C1,T/C,"dose: 100.0 mg/kg/injection, schedule: Q01DX001 (ip), vehicle: saline with Tween-80",99 % of control
same,T/C,"dose: 200.0 mg/kg/injection, schedule: Q01DX001 (ip), vehicle: saline with Tween-80",115 % of control
same,T/C,"dose: 400.0 mg/kg/injection, schedule: Q01DX001 (ip), vehicle: saline with Tween-80",104 % of control
Nc1ncnc2c1c1c(=O)[nH]cnc1n2C1OC(CO)C(O)C1O (stereo not drawn),T/C,"dose: 3.13 mg/kg/injection, schedule: Q01DX009 (ip), vehicle: water",107 % of control
same,T/C,"dose: 6.25 mg/kg/injection, schedule: Q01DX009 (ip), vehicle: water",113 % of control
same,T/C,"dose: 12.5 mg/kg/injection, schedule: Q01DX009 (ip), vehicle: water",114 % of control
same,T/C,"dose: 50.0 mg/kg/injection, schedule: Q01DX009 (ip), vehicle: water",116 % of control
Cc1ccc2c(c1)C(O)C(N)CCO2 (stereo not drawn),T/C,[17],100 % of control
same,T/C,[18],102 % of control
Cn1c(Cl)c(/C=N\Nc2cccc([N+](=O)[O-])c2)c2ccccc21,T/C,[7],92 % of control
same,T/C,[8],90 % of control
same,T/C,[9],92 % of control
CCCCC(NC(=O)CNC(=O)OCc1ccccc1)C(=O)O (stereo not drawn),T/C,[15],90 % of control
same,T/C,[16],104 % of control
same,T/C,"dose: 200.0 mg/kg/injection, schedule: Q01DX005 (ip), vehicle: Klucel (hydroxypropylcellulose) (HPC)",95 % of control
c1nc(N2CCCCC2)c2[nH]cnc2n1,T/C,[15],109 % of control
same,T/C,[16],104 % of control
CCOP(=O)(NN)OCC,T/C,"dose: 25.0 mg/kg/injection, schedule: Q04DX003 (ip), vehicle: saline",114 % of control
same,T/C,"dose: 50.0 mg/kg/injection, schedule: Q04DX003 (ip), vehicle: saline",97 % of control
same,T/C,[17],106 % of control
same,T/C,[18],103 % of control
OC(CNc1ccc(CSc2ccccc2)cc1)c1ccccc1 (stereo not drawn),T/C,"dose: 50.0 mg/kg/injection, schedule: Q01DX009 (ip), vehicle: saline + Tween-80 + alcohol",101 % of control and 104 % of control
same,T/C,"dose: 100.0 mg/kg/injection, schedule: Q01DX009 (ip), vehicle: saline + Tween-80 + alcohol",99 % of control
same,T/C,"dose: 200.0 mg/kg/injection, schedule: Q01DX009 (ip), vehicle: saline + Tween-80 + alcohol",99 % of control and 102 % of control
same,T/C,"dose: 400.0 mg/kg/injection, schedule: Q01DX009 (ip), vehicle: saline + Tween-80 + alcohol",104 % of control and 90 % of control
CC1(OC(=O)c2ccc(Cl)cc2)CC(C)(C)[N+]([O-])=N1 (stereo not drawn),T/C,[10],103 % of control
same,T/C,[11],99 % of control
same,T/C,[12],99 % of control
same,T/C,[13],96 % of control
same,T/C,[14],99 % of control
COC(=O)/C=C1/Nc2ccccc2SC1C(=O)OC (stereo not drawn),T/C,[1],104 % of control
same,T/C,[2],99 % of control
same,T/C,[3],100 % of control
COc1cc(CC(N)C(C)=O)cc(OC)c1OC (stereo not drawn),T/C,"dose: 50.0 mg/kg/injection, schedule: Q01DX009 (ip), vehicle: saline",99 % of control
same,T/C,"dose: 100.0 mg/kg/injection, schedule: Q01DX009 (ip), vehicle: saline",100 % of control
same,T/C,"dose: 200.0 mg/kg/injection, schedule: Q01DX009 (ip), vehicle: saline",100 % of control
